This note sets out measurements from the supplement of paper PMC10307832.

Each structure is given as a SMILES string.

One assay has as its system NCI-H1944. The assay is described as follows: relative viability (nuclei count vs DMSO), 5 days (fraction); higher = more cells survive. To be noted: first compound 8 µM. Put shortly: (§1)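 Dosing by pin tool came one day after lung cancer cell lines were seeded in 1536-well plates, using either one drug or a fixed anchor-drug dose plus five library-drug doses (not always all listed) in √10 steps. After 5 days, nuclei were counted on 4× images. Relative viability is treated-well nuclei count divided by vehicle-well nuclei count, and values are medians of duplicate plates.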
In turn, `CCCCCCCCCCCC1=C(O)C(=O)C=C(O)C1=O` [Embelin] + CS(=O)(=O)N1CCN(Cc2cc3nc(-c4cccc5[nH]ncc45)nc(N4CCOCC4)c3s2)CC1 [Pictilisib] (partner 1 µM) came in with a relative viability of 0.306.
On the same count and under the same terms, the result for `CCCCCCCCCCCC1=C(O)C(=O)C=C(O)C1=O` [Embelin] + NC(=O)Nc1cc(-c2cccc(F)c2)sc1C(=O)N[C@H]1CCCNC1 [AZD7762] (partner 0.2 µM) reads 0.436; that for `CCCCCCCCCCCC1=C(O)C(=O)C=C(O)C1=O` [Embelin] + Cc1nc(NC(=O)N2CCC[C@H]2C(N)=O)sc1-c1ccnc(C(C)(C)C(F)(F)F)c1 [Alpelisib] (partner 2 µM), 0.828.

In another assay the test system is NCI-H522. The assay is described as above. To be noted: first compound 0.08 µM. Put shortly:
as §1
Take `CCCCCCCCCCCC1=C(O)C(=O)C=C(O)C1=O` [Embelin] + CC(=O)Nc1cccc(-n2c(=O)n(C3CC3)c(=O)c3c(Nc4ccc(I)cc4F)n(C)c(=O)c(C)c32)c1 [Trametinib] (partner 0.02 µM): the relative viability was 0.637.
Same read-out and setting: the value for `CCCCCCCCCCCC1=C(O)C(=O)C=C(O)C1=O` [Embelin] + NC(=O)Nc1cc(-c2cccc(F)c2)sc1C(=O)N[C@H]1CCCNC1 [AZD7762] (partner 0.2 µM) was 0.865.

The assay is the same for the next values; noted with them: first compound 0.8 µM.
With `CCCCCCCCCCCC1=C(O)C(=O)C=C(O)C1=O` [Embelin] + CC(=O)Nc1cccc(-n2c(=O)n(C3CC3)c(=O)c3c(Nc4ccc(I)cc4F)n(C)c(=O)c(C)c32)c1 [Trametinib] (partner 0.02 µM), the relative viability was determined as 0.817.
In turn, `CCCCCCCCCCCC1=C(O)C(=O)C=C(O)C1=O` [Embelin] + NC(=O)Nc1cc(-c2cccc(F)c2)sc1C(=O)N[C@H]1CCCNC1 [AZD7762] (partner 0.2 µM) yielded a relative viability of 1.05.

Staying with this assay, now noted: first compound 2.53 µM.
Compound `CCCCCCCCCCCC1=C(O)C(=O)C=C(O)C1=O` [Embelin] + CC(=O)Nc1cccc(-n2c(=O)n(C3CC3)c(=O)c3c(Nc4ccc(I)cc4F)n(C)c(=O)c(C)c32)c1 [Trametinib] (partner 0.02 µM) displayed a relative viability of 0.719.
The same measure, in the same setting: the value for `CCCCCCCCCCCC1=C(O)C(=O)C=C(O)C1=O` [Embelin] + NC(=O)Nc1cc(-c2cccc(F)c2)sc1C(=O)N[C@H]1CCCNC1 [AZD7762] (partner 0.2 µM) was 0.91.

The same assay, now with this note: first compound 8 µM.
`CCCCCCCCCCCC1=C(O)C(=O)C=C(O)C1=O` [Embelin] + CC(=O)Nc1cccc(-n2c(=O)n(C3CC3)c(=O)c3c(Nc4ccc(I)cc4F)n(C)c(=O)c(C)c32)c1 [Trametinib] (partner 0.02 µM): the relative viability was found to be 0.765.
`CCCCCCCCCCCC1=C(O)C(=O)C=C(O)C1=O` [Embelin] + NC(=O)Nc1cc(-c2cccc(F)c2)sc1C(=O)N[C@H]1CCCNC1 [AZD7762] (partner 0.2 µM) gave a relative viability of 0.756.

A further assay relates to NCI-H1793. The assay is described as above. The conditions noted are these: first compound 0.08 µM. Put shortly:
as §1
`CCCCCCCCCCCC1=C(O)C(=O)C=C(O)C1=O` [Embelin] + COc1cc2c(Oc3ccc(NC(=O)C4(C(=O)Nc5ccc(F)cc5)CC4)cc3F)ccnc2cc1OCCCN1CCOCC1 [Foretinib] (partner 0.25 µM) registered a relative viability of 0.712.
The same measure, in the same setting: the result for `CCCCCCCCCCCC1=C(O)C(=O)C=C(O)C1=O` [Embelin] + CC(=O)Nc1cccc(-n2c(=O)n(C3CC3)c(=O)c3c(Nc4ccc(I)cc4F)n(C)c(=O)c(C)c32)c1 [Trametinib] (partner 0.02 µM) reads 0.398; that for `CCCCCCCCCCCC1=C(O)C(=O)C=C(O)C1=O` [Embelin] + CS(=O)(=O)N1CCN(Cc2cc3nc(-c4cccc5[nH]ncc45)nc(N4CCOCC4)c3s2)CC1 [Pictilisib] (partner 1 µM), 0.344; that for `CCCCCCCCCCCC1=C(O)C(=O)C=C(O)C1=O` [Embelin] + NC(=O)Nc1cc(-c2cccc(F)c2)sc1C(=O)N[C@H]1CCCNC1 [AZD7762] (partner 0.2 µM), 0.635.
In turn, `CCCCCCCCCCCC1=C(O)C(=O)C=C(O)C1=O` [Embelin] + Cc1nc(NC(=O)N2CCC[C@H]2C(N)=O)sc1-c1ccnc(C(C)(C)C(F)(F)F)c1 [Alpelisib] (partner 2 µM) returned a relative viability of 0.752.

Staying with this assay, now noted: first compound 0.8 µM.
The compound `CCCCCCCCCCCC1=C(O)C(=O)C=C(O)C1=O` [Embelin] + COc1cc2c(Oc3ccc(NC(=O)C4(C(=O)Nc5ccc(F)cc5)CC4)cc3F)ccnc2cc1OCCCN1CCOCC1 [Foretinib] (partner 0.25 µM) yielded a relative viability of 0.76.
Same read-out and setting: the result for `CCCCCCCCCCCC1=C(O)C(=O)C=C(O)C1=O` [Embelin] + CC(=O)Nc1cccc(-n2c(=O)n(C3CC3)c(=O)c3c(Nc4ccc(I)cc4F)n(C)c(=O)c(C)c32)c1 [Trametinib] (partner 0.02 µM) reads 0.446; that for `CCCCCCCCCCCC1=C(O)C(=O)C=C(O)C1=O` [Embelin] + CS(=O)(=O)N1CCN(Cc2cc3nc(-c4cccc5[nH]ncc45)nc(N4CCOCC4)c3s2)CC1 [Pictilisib] (partner 1 µM), 0.366; that for `CCCCCCCCCCCC1=C(O)C(=O)C=C(O)C1=O` [Embelin] + NC(=O)Nc1cc(-c2cccc(F)c2)sc1C(=O)N[C@H]1CCCNC1 [AZD7762] (partner 0.2 µM), 0.927.
The compound `CCCCCCCCCCCC1=C(O)C(=O)C=C(O)C1=O` [Embelin] + Cc1nc(NC(=O)N2CCC[C@H]2C(N)=O)sc1-c1ccnc(C(C)(C)C(F)(F)F)c1 [Alpelisib] (partner 2 µM) gave a relative viability of 0.972.

The same assay, now with this note: first compound 2.53 µM.
Turning to `CCCCCCCCCCCC1=C(O)C(=O)C=C(O)C1=O` [Embelin] + COc1cc2c(Oc3ccc(NC(=O)C4(C(=O)Nc5ccc(F)cc5)CC4)cc3F)ccnc2cc1OCCCN1CCOCC1 [Foretinib] (partner 0.25 µM), the relative viability is 0.916.
The compound `CCCCCCCCCCCC1=C(O)C(=O)C=C(O)C1=O` [Embelin] + CC(=O)Nc1cccc(-n2c(=O)n(C3CC3)c(=O)c3c(Nc4ccc(I)cc4F)n(C)c(=O)c(C)c32)c1 [Trametinib] (partner 0.02 µM) yielded a relative viability of 0.511.
Same read-out and setting: the value for `CCCCCCCCCCCC1=C(O)C(=O)C=C(O)C1=O` [Embelin] + CS(=O)(=O)N1CCN(Cc2cc3nc(-c4cccc5[nH]ncc45)nc(N4CCOCC4)c3s2)CC1 [Pictilisib] (partner 1 µM) was 0.361; that for `CCCCCCCCCCCC1=C(O)C(=O)C=C(O)C1=O` [Embelin] + NC(=O)Nc1cc(-c2cccc(F)c2)sc1C(=O)N[C@H]1CCCNC1 [AZD7762] (partner 0.2 µM) was 0.472.
The same measure, in the same setting: the value for `CCCCCCCCCCCC1=C(O)C(=O)C=C(O)C1=O` [Embelin] + Cc1nc(NC(=O)N2CCC[C@H]2C(N)=O)sc1-c1ccnc(C(C)(C)C(F)(F)F)c1 [Alpelisib] (partner 2 µM) was 0.794.

The same assay, now with this note: first compound 8 µM.
Consider `CCCCCCCCCCCC1=C(O)C(=O)C=C(O)C1=O` [Embelin] + COc1cc2c(Oc3ccc(NC(=O)C4(C(=O)Nc5ccc(F)cc5)CC4)cc3F)ccnc2cc1OCCCN1CCOCC1 [Foretinib] (partner 0.25 µM), for which the relative viability was 0.765.
Same read-out and setting: the value for `CCCCCCCCCCCC1=C(O)C(=O)C=C(O)C1=O` [Embelin] + CC(=O)Nc1cccc(-n2c(=O)n(C3CC3)c(=O)c3c(Nc4ccc(I)cc4F)n(C)c(=O)c(C)c32)c1 [Trametinib] (partner 0.02 µM) was 0.419; that for `CCCCCCCCCCCC1=C(O)C(=O)C=C(O)C1=O` [Embelin] + CS(=O)(=O)N1CCN(Cc2cc3nc(-c4cccc5[nH]ncc45)nc(N4CCOCC4)c3s2)CC1 [Pictilisib] (partner 1 µM) was 0.218.
